Results reported in US20070293443A1, “Composition for Accelerating Calcium Absorption” (Good Shusei Co. Ltd, priority 2004, published 2007).

Key:
[1] = test system: dietary calcium absorption; assay: Dietary calcium absorption accelerating effect, blood calcium level after oral calcium carbonate with test substance (Example 1); type: in vivo; details: male ICR mice, oral 5 mmol/kg calcium carbonate alone or with test substance (1.25-10.0 mmol/kg), up to 4 hours after administration
Source text: For the experiment, 11-weeks old male ICR mice were used after overnight fasting. During the test period, the mice were given deionized water only. […] The doses of L-arabonic acid administered in combination were 1.25 mmol/kg (Group II), 2.5 mmol/kg (Group III), 5.0 mmol/kg (Group IV), and 10.0 mmol/kg (Group V), and the doses of D-gluconic acid were 2.5 mmol/kg (Group VI), 5.0 mmol/kg (Group VII), and 10.0 mmol/kg (Group VIII). […] The blood calcium level was quantified by a chelate colorimetric method (ortho-cresolphthalein complexone (OCPC) method). The obtained data were analyzed by a paired t-test, and a risk ratio of 5% or less was considered as significant difference.

[2] = Neutralization curve on dropwise addition of 0.05 N sodium hydroxide, buffering capacity (Example 9); type: physicochemical; details: 50 mL of 0.4% aqueous solution, 0.05 N sodium hydroxide added
Description: A sodium hydroxide solution at a concentration of 0.05 N was added to 50 mL of a 0.4% aqueous solution of the preparation of Example 9, and the changes in pH were obtained as shown in FIG. 3. […] In addition, 0.2% aqueous solutions of the preparation of Example 9, Comparative Example 1 and Comparative Example 2 were tasted. The 0.2% aqueous solution of the preparation of […] (pH 4.95), having the lowest pH among three, had the closest taste to water, no flavor, and thus it was indistinguishable from water. The preparations of Comparative Example 1 (pH 5.60) and Comparative Example 2 (pH 5.02) had clearly bitter tastes, even in small amount.
In addition, a sodium hydroxide solution at a concentration of 0.05 N was added to 50 mL of a 0.4% aqueous solution of L-arabono-γ-lactone and 50 mL of a 0.4% aqueous solution of D-glucono-δ-lactone, respectively, and the changes in pH were obtained as shown in FIG. 2.

mice = assay: Single oral administration safety test, LD50; type: in vivo
Source text: As a result of a single oral test using mice, it was confirmed that the LD50 value of L-arabonic acid was about 10 g/kg, and thus L-arabonic acid was a material having high safety.
While it was discovered in Example 5 that the calcium moiety of calcium L-arabonate used in the invention was extremely readily-absorbable, it was shown in Example 6 that the L-arabonic acid moiety was extremely poorly absorbed in the digestive tract.

[3] = Blood calcium level after administration of calcium L-arabonate (Example 5); type: in vivo; details: male ICR mice, oral calcium L-arabonate 1.25, 2.5, 5.0 mmol/kg or calcium carbonate 5 mmol/kg, up to 4 hours
Description: For the experiment, 11-weeks old male ICR mice were used after overnight fasting. During the test period, the mice were given deionized water only. The mice were divided into four groups (Groups I to IV, 5 animals in each group), and the test substance was orally administered as a solution in deionized water. […] The blood calcium level was quantified by a chelating calorimetric method (ortho-cresolphthalein complexone (OCPC) method). The obtained data were analyzed by a paired t-test, and a risk ratio of 5% or less was considered as significant difference.

[4] = Kinetics of calcium L-arabonate in the digestive tract of rat (Example 6); type: in vivo
Description: For the experiment, 9 to 12-weeks old male Wistar rats were used after overnight fasting. After orally administering 2.5 mmol/kg of calcium L-arabonate, the animals were entered into a metabolic cage, and were sacrificed after 2 hours, after 6 hours, and after 24 hours, to remove the digestive tracts. The contents in each site of the digestive tract were recovered, respectively, and the amount of unaltered L-arabonic acid was quantified by the HPLC method. During the test period, the animals were given deionized water only.

[5] = test system: experimental osteoporosis induced by calcium-deficient diet; assay: Experimental osteoporosis induced by calcium-deficient diet (Example 7); type: in vivo, mice; details: for absorption rate of calcium in the digestive tract, fourth week / absorption rate of calcium in the digestive tract, second week: calcium-deficient diet mice; for Femur Ash content / Femur Ca content / Femur P content / Femur Weight / Tibia Ash content / Tibia Ca content / Tibia P content / Tibia Weight: 4 weeks
Description: (§1) Six-week old female ICR mice were divided into five groups (Groups I to V, 10 animals in each group), and fed calcium-deficient feed (calcium carbonate-free AIN 93M, Oriental Yeast Co., Ltd.) for 4 weeks to induce osteoporosis condition. Calcium L-arabonate was dissolved in water and orally administered daily in a dose of 1.25 mmol/kg (Group II) or 2.5 mmol/kg (Group III). The control group for pathological condition (Group I) was administered with water in the same manner. As a comparative group, a group administered with calcium D-gluconate (dose 2.5 mmol/kg (Group IV)) was provided. A normal control group (Group V) was separately provided and was given the normal feed (AIN 93M, Oriental Yeast Co., Ltd.). After administering the test substance on the second week and fourth week of initiation of the test, the animals were transferred to a metabolic cage, and feces were collected for 24 hours. The amount of calcium and phosphorus excreted in the feces were measured, and the absorption rates of ingested calcium and phosphorous in the digestive tract were determined. After completion of the test period, the animals of the respective groups were sacrificed to remove both femurs and tibiae. The femurs and tibiae were removed muscles etc., then immersed in 70% ethanol overnight, and dried at 60° C. for 24 hours to be used as samples for analysis. The measurement items were dry weight, ash content, calcium content, and phosphorus content. The ash content was measured by an ashing method at 550° C. for 18 hours, the calcium content was measured by an OCPC method (Calcium C-Test Wako, Wako Pure Chemical Industries, Ltd.), and the phosphorus content was measured by a p-methylaminophenol reduction method (Phospho C-Test Wako, Wako Pure Chemical Industries, Ltd.). The obtained data were analyzed by ANOVA and the Dunnett's method, and a risk ratio of 5% or less was considered as significant difference.

[6] = test system: experimental osteoporosis induced by combination of ovary excision and calcium-deficient diet; assay: Experimental osteoporosis due to combination of ovary excision and calcium-deficient diet (Example 8); type: in vivo, mice; details: for absorption rate of calcium in the digestive tract, fourth week / absorption rate of calcium in the digestive tract, second week: ovary-excised mice on calcium-deficient diet; for Femur Ash content / Femur Ca content / Femur P content / Femur Weight / Tibia Ash content / Tibia Ca content / Tibia P content / Tibia Weight: 4 weeks
Description: as §1
Six-weeks old female ICR mice excised their ovaries were divided into 5 groups (Groups I to V, 10 animals in each group), and fed calcium-deficient feed (calcium carbonate-free AIN 93M, Oriental Yeast Co., Ltd.) for 4 weeks to induce osteoporosis condition. Calcium L-arabonate was dissolved in water, and orally administered daily in a dose of 1.25 mmol/kg (Group II) or 2.5 mmol/kg (Group III). The control group for pathological condition (Group I) was administered with water in the same manner. As a comparative group, a group administered with calcium D-gluconate (dose 2.5 mmol/kg (Group IV)) was provided. Also, a group excised ovaries but given with normal feed (AIN 93M, Oriental Yeast Co., Ltd.) (Group V) was separately provided. The measurement of the absorption rate of calcium in the digestive tract, and the analysis of femur and tibia were performed in the same manner as in Example 7.

[7] = 1.25 and 2.5 mmol/kg, versus pathological control and calcium D-gluconate group

O=C1O[C@@H](CO)[C@H](O)[C@H]1O [L-arabono-γ-lactone]
change in blood calcium level [1]: same effects as those of L-arabonic acid | buffering capacity [2]: milder than that of D-glucono-δ-lactone

O=C([O-])[C@@H](O)[C@H](O)[C@H](O)CO.O=C([O-])[C@@H](O)[C@H](O)[C@H](O)CO.[Ca+2] [calcium L-arabonate]
LD50 (mice): ≥ 7400 mg/kg | change in blood calcium level [3]: dose-dependent increases in the blood calcium level | share of the total amount of administration remained in the cecum and the colon ([4]; after 24 hours, oral 2.5 mmol/kg calcium L-arabonate): About 23% | absorption of the arabonic acid moiety in the small intestine ([4]; after oral administration of the calcium salt): hardly absorbed in the small intestine | Residual ratio of L-arabonic acid after administration, Cecum, After 2 hrs ([4]; oral 2.5 mmol/kg calcium L-arabonate, cecum, 2 hrs): 34.4 ± 5.81% | Residual ratio of L-arabonic acid after administration, Cecum, After 6 hrs ([4]; oral 2.5 mmol/kg calcium L-arabonate, cecum, 6 hrs): 57.8 ± 2.27% | Residual ratio of L-arabonic acid after administration, Cecum, After 24 hrs ([4]; oral 2.5 mmol/kg calcium L-arabonate, cecum, 24 hrs): 19.0 ± 15.67% | Residual ratio of L-arabonic acid after administration, Colon, After 2 hrs ([4]; oral 2.5 mmol/kg calcium L-arabonate, colon, 2 hrs): 1.9 ± 0.76% | Residual ratio of L-arabonic acid after administration, Colon, After 6 hrs ([4]; oral 2.5 mmol/kg calcium L-arabonate, colon, 6 hrs): 3.9 ± 1.30% | Residual ratio of L-arabonic acid after administration, Colon, After 24 hrs ([4]; oral 2.5 mmol/kg calcium L-arabonate, colon, 24 hrs): 2.5 ± 0.95% | Residual ratio of L-arabonic acid after administration, Small intestine, After 2 hrs ([4]; oral 2.5 mmol/kg calcium L-arabonate, small intestine, 2 hrs): 22.6 ± 4.85% | Residual ratio of L-arabonic acid after administration, Small intestine, After 6 hrs ([4]; oral 2.5 mmol/kg calcium L-arabonate, small intestine, 6 hrs): 2.2 ± 1.08% | Residual ratio of L-arabonic acid after administration, Small intestine, After 24 hrs ([4]; oral 2.5 mmol/kg calcium L-arabonate, small intestine, 24 hrs): 0.2 ± 0.08% | Residual ratio of L-arabonic acid after administration, Stomach, After 2 hrs ([4]; oral 2.5 mmol/kg calcium L-arabonate, stomach, 2 hrs): 3.30 ± 1.34% | Residual ratio of L-arabonic acid after administration, Stomach, After 6 hrs ([4]; oral 2.5 mmol/kg calcium L-arabonate, stomach, 6 hrs): 0.1 ± 0.06% | Residual ratio of L-arabonic acid after administration, Stomach, After 24 hrs ([4]; oral 2.5 mmol/kg calcium L-arabonate, stomach, 24 hrs): 0% | absorption rates of phosphorus in the digestive tract ([5]; 1.25 and 2.5 mmol/kg, compared with calcium D-gluconate group): tendency for higher absorption rates of phosphorus compared with the comparative group | amelioration of weight, ash, calcium and phosphorus content of femur and tibia [5, 7]: ameliorated in all of the above indices in dose-dependent manner | absorption rate of calcium in the digestive tract, fourth week ([5]; dose 1.25 mmol/kg oral daily): 99.3% | absorption rate of calcium in the digestive tract, second week ([5]; dose 1.25 mmol/kg oral daily): 93.1% | absorption rate of calcium in the digestive tract, fourth week ([5]; dose 2.5 mmol/kg oral daily): 80.1% | absorption rate of calcium in the digestive tract, second week ([5]; dose 2.5 mmol/kg oral daily): 87.9% | Femur Ash content ([5]; dose 1.25 mmol/kg oral daily): 24 ± 0.7 mg | Femur Ca content ([5]; dose 1.25 mmol/kg oral daily): 8.8 ± 0.22 mg | Femur P content ([5]; dose 1.25 mmol/kg oral daily): 4.5 ± 0.09 mg | Femur Weight ([5]; dose 1.25 mmol/kg oral daily): 44 ± 1.0 mg | Femur Ash content ([5]; dose 2.5 mmol/kg oral daily): 27 ± 0.5 mg | Femur Ca content ([5]; dose 2.5 mmol/kg oral daily): 9.5 ± 0.13 mg | Femur P content ([5]; dose 2.5 mmol/kg oral daily): 5.1 ± 0.05 mg | Femur Weight ([5]; dose 2.5 mmol/kg oral daily): 49 ± 1.1 mg | Tibia Ash content ([5]; dose 1.25 mmol/kg oral daily): 23 ± 0.8 mg | Tibia Ca content ([5]; dose 1.25 mmol/kg oral daily): 8.1 ± 0.28 mg | Tibia P content ([5]; dose 1.25 mmol/kg oral daily): 4.2 ± 0.14 mg | Tibia Weight ([5]; dose 1.25 mmol/kg oral daily): 43 ± 1.6 mg | Tibia Ash content ([5]; dose 2.5 mmol/kg oral daily): 24 ± 0.5 mg | Tibia Ca content ([5]; dose 2.5 mmol/kg oral daily): 9.1 ± 0.22 mg | Tibia P content ([5]; dose 2.5 mmol/kg oral daily): 4.6 ± 0.05 mg | Tibia Weight ([5]; dose 2.5 mmol/kg oral daily): 46 ± 1.2 mg | amelioration of weight, ash, calcium and phosphorus content of femur and tibia [6, 7]: ameliorated in all of the indices in dose-dependent manner | absorption rate of calcium in the digestive tract, fourth week ([6]; dose 1.25 mmol/kg oral daily): 81.8% | absorption rate of calcium in the digestive tract, second week ([6]; dose 1.25 mmol/kg oral daily): 85.7% | absorption rate of calcium in the digestive tract, fourth week ([6]; dose 2.5 mmol/kg oral daily): 57.7% | absorption rate of calcium in the digestive tract, second week ([6]; dose 2.5 mmol/kg oral daily): 74.4% | Femur Ash content ([6]; dose 1.25 mmol/kg oral daily): 25 ± 0.4 mg | Femur Ca content ([6]; dose 1.25 mmol/kg oral daily): 8.8 ± 0.18 mg | Femur P content ([6]; dose 1.25 mmol/kg oral daily): 4.7 ± 0.07 mg | Femur Weight ([6]; dose 1.25 mmol/kg oral daily): 45 ± 0.9 mg | Femur Ash content ([6]; dose 2.5 mmol/kg oral daily): 28 ± 0.8 mg | Femur Ca content ([6]; dose 2.5 mmol/kg oral daily): 10.2 ± 0.24 mg | Femur P content ([6]; dose 2.5 mmol/kg oral daily): 5.3 ± 0.11 mg | Femur Weight ([6]; dose 2.5 mmol/kg oral daily): 50 ± 0.9 mg | Tibia Ash content ([6]; dose 1.25 mmol/kg oral daily): 22 ± 0.3 mg | Tibia Ca content ([6]; dose 1.25 mmol/kg oral daily): 8.2 ± 0.15 mg | Tibia P content ([6]; dose 1.25 mmol/kg oral daily): 4.2 ± 0.05 mg | Tibia Weight ([6]; dose 1.25 mmol/kg oral daily): 42 ± 0.8 mg | Tibia Ash content ([6]; dose 2.5 mmol/kg oral daily): 25 ± 0.5 mg | Tibia Ca content ([6]; dose 2.5 mmol/kg oral daily): 9.3 ± 0.23 mg | Tibia P content ([6]; dose 2.5 mmol/kg oral daily): 4.7 ± 0.11 mg | Tibia Weight ([6]; dose 2.5 mmol/kg oral daily): 46 ± 1.0 mg
